Laboratory results reported in patent publication US6380396B1, “Quaternary ammonium compounds” (Pfizer Inc., priority 1997, dated 2002).

How the values were obtained:
human NK1 receptor = molecular target: T1, human NK1 receptor (Homo sapiens, UniProt P25103); test: inhibition of [3H]-Substance P binding to membranes from human IM9 cell line
T1 construct: membranes prepared from the human IM9 cell line expressing the human NK1 receptor; endogenous in cells; host or cells: human IM9 cell line (membranes)
Description: The affinity of the compounds of the formula (I) for the human NK1 receptor can be determined in vitro by determining their ability to inhibit [^3H]-Substance P binding to membranes prepared from the human IM9 cell line expressing the human NK1 receptor using a modification of the method described in McLean, S. et al, J. Pharm.Exp.Ther., 267, 472-9 (1993) in which whole cells were used.

human NK2 receptor = molecular target: T2, human NK2 receptor (Homo sapiens, UniProt P21452); test: competition with [3H]-NKA for binding to membranes from Chinese hamster ovary cells expressing the cloned receptor; conditions: CHO cell membranes, 90 min, 25° C.
T2 construct: expressed in transfected cells; host or cells: Chinese hamster ovary cells (membranes)
T2 sequence (P21452 1-398): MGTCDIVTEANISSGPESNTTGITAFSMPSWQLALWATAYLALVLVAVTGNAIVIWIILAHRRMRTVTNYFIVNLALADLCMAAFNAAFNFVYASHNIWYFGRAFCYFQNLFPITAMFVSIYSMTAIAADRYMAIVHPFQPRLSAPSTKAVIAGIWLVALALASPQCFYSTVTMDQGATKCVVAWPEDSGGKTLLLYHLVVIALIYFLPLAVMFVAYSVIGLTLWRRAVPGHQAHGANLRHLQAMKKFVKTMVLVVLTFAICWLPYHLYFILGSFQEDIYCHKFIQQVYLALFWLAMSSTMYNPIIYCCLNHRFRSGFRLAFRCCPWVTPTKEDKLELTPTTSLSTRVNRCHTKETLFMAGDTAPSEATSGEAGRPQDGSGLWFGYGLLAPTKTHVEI
Experimental: The affinity of the compounds of formula (I) for the human NK2 receptor can be determined in vitro by determining their ability to compete with [^3H]-NKA (neurokinin A) for binding to membranes prepared from Chinese hamster ovary cells expressing the cloned human NK2 receptor. In this method, washed Chinese hamster ovary cell membranes are prepared as described for the previous method where IM9 cells are used instead. The membranes are incubated (90 min, 25° C.) with [^3H]-NKA and with a range of concentrations of the test compound. Non-specific binding is determined in the presence of 10 μM NKA.

T1 sequence (P25103 whole entry): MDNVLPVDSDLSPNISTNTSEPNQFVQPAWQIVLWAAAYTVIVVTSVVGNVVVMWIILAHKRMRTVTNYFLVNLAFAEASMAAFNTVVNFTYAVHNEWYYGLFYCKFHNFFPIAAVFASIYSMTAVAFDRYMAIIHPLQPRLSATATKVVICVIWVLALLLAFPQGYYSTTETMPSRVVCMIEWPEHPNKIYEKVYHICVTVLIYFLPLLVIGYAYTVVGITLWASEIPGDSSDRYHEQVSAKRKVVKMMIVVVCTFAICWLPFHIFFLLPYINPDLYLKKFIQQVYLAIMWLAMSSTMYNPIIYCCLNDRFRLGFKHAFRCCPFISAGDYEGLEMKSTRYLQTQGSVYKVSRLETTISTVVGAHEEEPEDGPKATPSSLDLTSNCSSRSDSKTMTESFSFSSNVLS

For `Cc1cccc(C(=O)c2nccn2CC(CC[N+]23CCC(c4ccccc4)(CC2)CC3)c2ccc(Cl)c(Cl)c2)c1C` (stereo not shown) [Example 2], the IC50 (human NK1 receptor) was 0.6 nM and the IC50 (human NK2 receptor) was 4 nM.

For `O=C(c1cccc2c1OCC2)c1nccn1CC(CC[N+]12CCC(c3ccccc3)(CC1)CC2)c1ccc(Cl)c(Cl)c1` (stereo not shown) [Example 5], the IC50 (human NK1 receptor) was 8 nM and the IC50 (human NK2 receptor) was 11 nM.

Compound `O=C(c1ccc2ccccc2c1)c1nccn1CC(CC[N+]12CCC(c3ccccc3)(CC1)CC2)c1ccc(Cl)c(Cl)c1` (stereo not shown) [Example 6] has an IC50 (human NK1 receptor) of 9 nM and an IC50 (human NK2 receptor) of 96 nM.

`O=C(c1cccc2c1CCCC2)c1nccn1C[C@@H](CC[N+]12CCC(c3ccccc3)(CC1)CC2)c1ccc(Cl)c(Cl)c1` [Example 18, 4-Phenyl-1-(3(S)-[3,4-dichlorophenyl]-4-[2-(1,2,3,4-tetrahydro-5-naphthoyl)imidazol-1-yl]butyl)quinuclidinium methanesulphonate] showed an IC50 (human NK1 receptor) of 123 nM and an IC50 (human NK2 receptor) of 3 nM.

For `O=C(c1cccc2c1CCCC2)c1nccn1C[C@H](CC[N+]12CCC(c3ccccc3)(CC1)CC2)c1ccc(Cl)c(Cl)c1` [Example 19, 4-Phenyl-1-(3(R)-[3,4-dichlorophenyl]-4-[2-(1,2.3,4-tetrahydro-5-naphthoyl)imidazol-1-yl]butyl)quinuclidinium methanesulphonate], the IC50 (human NK1 receptor) was 2 nM and the IC50 (human NK2 receptor) was 24 nM.
